ChEMBL document CHEMBL1123590, “Dopamine agonists related to 3-allyl-6-chloro-2,3,4,5-tetrahydro-1-(4-hydroxyphenyl)-1H-3-benzaz epi ne-7, 8-diol. 6-Position modifications” (J Med Chem, 1987)

How the values were obtained:
[1] = molecular target: T1, D(2) dopamine receptor (Homo sapiens, UniProt P14416); experiment: Dopamine receptor D2 agonist activity was determined for inhibition of the constrictor response to electrical stimulation in an isolated perfused rabbit ear artery preparation; format: functional, Oryctolagus cuniculus; details: target entry is the homologue from another species
[2] = molecular target: D(1A) dopamine receptor (Rattus norvegicus, UniProt P18901); experiment: Dopamine agonist (Dopamine receptor D1) activity was measured as increase in cAMP formation relative to maximum increase in dopamine-sensitive adenylate cyclase; format: functional
[3] = species: Rattus norvegicus; experiment: Maximum response of adenylate cyclase to that of maximum response caused by dopamine was measured; format: functional; design: unit not given here
[4] = molecular target: T1, D(2) dopamine receptor; experiment: Dopamine receptor D2 agonist activity was determined for inhibition of release of NE in an isolated perfused rabbit ear artery preparation

T1 sequence (P14416 whole entry, the tested form may be a part): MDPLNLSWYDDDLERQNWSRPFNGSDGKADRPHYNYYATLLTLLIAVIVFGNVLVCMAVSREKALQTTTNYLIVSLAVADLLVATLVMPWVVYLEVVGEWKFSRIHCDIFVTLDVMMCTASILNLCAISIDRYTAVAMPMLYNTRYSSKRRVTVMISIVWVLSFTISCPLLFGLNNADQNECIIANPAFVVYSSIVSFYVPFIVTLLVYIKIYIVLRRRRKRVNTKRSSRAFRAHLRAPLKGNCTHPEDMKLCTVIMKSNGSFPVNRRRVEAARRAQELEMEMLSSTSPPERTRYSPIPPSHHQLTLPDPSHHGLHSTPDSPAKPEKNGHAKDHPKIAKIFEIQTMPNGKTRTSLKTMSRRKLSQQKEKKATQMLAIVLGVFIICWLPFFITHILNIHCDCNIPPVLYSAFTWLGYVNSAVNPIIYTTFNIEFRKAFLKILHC
Chain of D(1A) dopamine receptor (P18901 whole entry): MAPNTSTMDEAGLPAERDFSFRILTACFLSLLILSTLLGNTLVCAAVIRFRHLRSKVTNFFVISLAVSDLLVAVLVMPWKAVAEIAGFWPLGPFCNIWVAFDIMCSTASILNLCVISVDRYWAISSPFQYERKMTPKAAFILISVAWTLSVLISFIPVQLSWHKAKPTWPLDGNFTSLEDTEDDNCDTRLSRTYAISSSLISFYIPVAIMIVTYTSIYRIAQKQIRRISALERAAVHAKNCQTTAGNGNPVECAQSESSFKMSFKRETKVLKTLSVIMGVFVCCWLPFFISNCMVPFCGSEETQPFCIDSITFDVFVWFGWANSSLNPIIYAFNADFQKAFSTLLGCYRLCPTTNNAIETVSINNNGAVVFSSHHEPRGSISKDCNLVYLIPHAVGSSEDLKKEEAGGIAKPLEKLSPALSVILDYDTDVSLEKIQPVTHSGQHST

Structure (SMILES)	EC50 [1]	EC50 [2]	EC50 [4]	Max response [3]
C=CCN1CCc2c(cc(O)c(O)c2C)C(c2ccc(O)cc2)C1.Cl (stereo unspecified)	> 10 µM	0.4 µM	–	69
Br.C=CCN1CCc2cc(O)c(O)cc2C(c2ccc(O)cc2)C1 (stereo unspecified)	0.253 µM	0.4 µM	–	35
C=CCN1CCc2cc(O)c(O)cc2C(c2ccccc2)C1.Cl (stereo unspecified)	–	–	–	45

The remaining compounds from weak to strong by EC50 [2], led by results:

EC50 [1]	EC50 [2]	EC50 [4]	Structure (SMILES)	Max response [3]
0.137 µM	0.1 µM	–	C=CCN1CCc2c(cc(O)c(O)c2F)C(c2ccc(O)cc2)C1.CS(=O)(=O)O (stereo unspecified)	89
0.174 µM	0.05 µM	–	C=CCN1CCc2c(cc(O)c(O)c2Br)C(c2ccc(O)cc2)C1.CS(=O)(=O)O (stereo unspecified)	78
–	0.015 µM	0.122 µM	C=CCN1CCc2c(cc(O)c(O)c2Cl)C(c2ccc(O)cc2)C1.CS(=O)(=O)O (stereo unspecified)	80
